# In patent US20110158908A1, “CYCLOSPORIN A-BINDING PROTEIN” (Sapporo Medical University, priority 2007, published 2011):
# What was measured:
# [1] = system: CSABP expression in normal human liver cells; experiment: Induction of CSABP expression by inflammatory cytokine in normal human liver cells (real time PCR); assay type: cell-based; details: 8 hours
# Description: Normal human liver cells (Primary Human Liver Hepatocyte Cells, DS PHARMA BIOMEDICAL CO., LTD., Cat. No. ABI-3716) were cultured in a 6 well plate at a density of 2×10^5 cells/well, and human IL-1β, TNFα, or IL-6 (all from BioSource) was added thereto to give a final concentration in the well of 1 pg/mL, 100 pg/mL, or 1 ng/mL respectively. 8 hours after the addition, the cells were collected, and expression of CSABP within the cells was quantitatively determined by real time PCR in the same manner as in Example 5 (2).
# [2] = system: CSABP gene expression in MH14 cells; experiment: Effect of anti-methylating agent on gene expression in MH14 cells (RT-PCR); assay type: cell-based, human; details: MH14 cells, 0.1, 0.5, 1.0 μM, 4 days
# Description: 10^5 cells/well of MH14 cells (liver cancer cell line) were precultured in a 6 well plate with MH14 cell culture medium for 24 hours, and 5-aza-2′-deoxycytidine (Sigma) was then added thereto. Subsequently, medium exchange was carried out every 24 hours with a medium to which the methylation inhibitor had been added, and the cells were collected after 4 days. The amount of 5-aza-2′-deoxycytidine added was 0, 0.1, 0.5, and 1.0 μM. Total RNA was recovered from the cells thus collected in accordance with a standard method using an RNeasy kit (Qiagen, Cat. 74104). This total RNA was subjected to a reverse transcription reaction in accordance with a standard method using a Transcriptor First Strand cDNA Synthesis Kit (Roche, Cat. 04379012001), and the cDNA thus obtained was used as a template. The primer employed the above-mentioned CSABP primer (SEQ ID Nos: 5 and 6), and a PCR reaction was carried out in a Gotaq® PCR system (Promega) at 95° C., 5 minutes×1 cycle, 95° C., 0.5 minutes, 55° C., 0.5 minutes, 72° C., 2.5 minutes×35 cycles, 72° C., 7 minutes×1 cycle. As a positive control, a reaction was carried out in the same manner using the RASSF1A primers RASSF1A transcript variant D 391 to 415 forward primer: 5′-[…]-3′ (SEQ ID No: 38) and RASSF1A transcript variant D 635 to 660 reverse primer: 5′-[…]-3′ (SEQ ID No: 39), which is a gene for which a relationship between expression and DNA methylation in a promoter region has been shown by Cui X et al., Hum Pathol. 2006; 37 (3): 298-311. As an internal control, a reaction was carried out in the same manner using the above-mentioned G6PDH primer (SEQ ID Nos: 20 and 21).
# [3] = target: T1, recombinant full length CSABP protein (CSABP-FL) (Homo sapiens, UniProt Q9H6S0, S652N/T565S); experiment: Molecular association with CSABP by SPR (Biacore 3000); assay type: binding; details: read-out: dissociation constant KD with CSABP
# T1 construct: pET-CSABP-FL and pET-CSABP-C (FL=full length, C=C terminal region (CSABP ORF: 193rd to 1430th amino acids)); made in house; host or cells: E. coli BL21 (DE3)
# T1 sequence (Q9H6S0 1-1430 T565S/S652N): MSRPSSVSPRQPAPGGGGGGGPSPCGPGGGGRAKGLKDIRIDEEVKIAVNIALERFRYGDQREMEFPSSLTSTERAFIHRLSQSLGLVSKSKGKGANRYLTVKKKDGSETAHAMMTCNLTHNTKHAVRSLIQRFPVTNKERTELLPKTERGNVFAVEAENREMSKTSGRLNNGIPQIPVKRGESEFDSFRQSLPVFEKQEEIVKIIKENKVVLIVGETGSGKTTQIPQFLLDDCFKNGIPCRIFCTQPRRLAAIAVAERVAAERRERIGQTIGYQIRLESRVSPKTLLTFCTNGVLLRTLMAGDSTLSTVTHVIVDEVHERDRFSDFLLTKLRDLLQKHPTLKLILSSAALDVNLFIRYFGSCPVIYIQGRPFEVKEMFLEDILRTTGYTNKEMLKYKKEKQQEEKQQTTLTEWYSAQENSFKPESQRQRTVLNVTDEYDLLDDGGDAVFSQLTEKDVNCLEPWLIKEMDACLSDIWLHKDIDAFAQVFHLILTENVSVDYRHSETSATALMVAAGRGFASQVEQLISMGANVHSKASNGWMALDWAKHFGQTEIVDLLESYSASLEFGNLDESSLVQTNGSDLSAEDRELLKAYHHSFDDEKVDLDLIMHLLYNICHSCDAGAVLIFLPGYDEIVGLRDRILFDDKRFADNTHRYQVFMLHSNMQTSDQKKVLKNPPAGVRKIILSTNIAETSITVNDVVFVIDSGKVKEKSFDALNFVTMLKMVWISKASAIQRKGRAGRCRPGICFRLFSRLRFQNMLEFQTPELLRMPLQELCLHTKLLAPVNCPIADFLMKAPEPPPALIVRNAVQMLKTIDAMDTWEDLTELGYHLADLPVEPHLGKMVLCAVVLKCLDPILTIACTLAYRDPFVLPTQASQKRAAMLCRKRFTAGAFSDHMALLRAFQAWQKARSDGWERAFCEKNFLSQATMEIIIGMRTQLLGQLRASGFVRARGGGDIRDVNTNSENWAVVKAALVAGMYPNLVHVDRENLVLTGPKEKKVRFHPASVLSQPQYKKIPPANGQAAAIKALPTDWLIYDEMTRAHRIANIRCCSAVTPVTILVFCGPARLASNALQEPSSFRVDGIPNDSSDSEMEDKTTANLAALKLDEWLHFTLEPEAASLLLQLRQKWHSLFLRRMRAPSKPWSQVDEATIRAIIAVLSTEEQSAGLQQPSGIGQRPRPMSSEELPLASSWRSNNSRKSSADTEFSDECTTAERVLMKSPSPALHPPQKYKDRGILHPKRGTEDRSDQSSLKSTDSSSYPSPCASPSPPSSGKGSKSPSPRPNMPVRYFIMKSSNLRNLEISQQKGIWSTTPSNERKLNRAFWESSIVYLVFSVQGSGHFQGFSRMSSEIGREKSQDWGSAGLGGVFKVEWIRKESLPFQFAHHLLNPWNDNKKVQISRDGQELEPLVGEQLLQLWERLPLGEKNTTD
# Description: Molecular association between recombinant full length CSABP protein (CSABP-FL) and CsA was evaluated by an SPR (surface plasmon resonance) method. SPR measurement employed Biacore 3000 (Biacore). A purified recombinant CSABP protein was immobilized on Biacore chip CM5 by an amine coupling method (amount immobilized about 10000).
compound,measurement,setting,value
IL-1β: human inflammatory cytokine (BioSource),amount of expression of CSABP compared with the control,[1]; 1 pg/mL,some increase
IL-6: human inflammatory cytokine (BioSource),amount of expression of CSABP compared with the control,[1]; 1 ng/mL,some increase
Nc1ncn([C@H]2C[C@H](O)[C@@H](CO)O2)c(=O)n1 [5-aza-2′-deoxycytidine],amount of expression of the CSABP gene,[2],increase
same,cytotoxicity,[2],no cytotoxicity was observed
same,expression of RASSF1A (positive control gene),[2],increased
TNF-α,amount of expression of CSABP compared with the control,[1]; 100 pg/mL,about 1.8 times
C=CC[C@@H]1/C=C(\C)C[C@H](C)C[C@H](OC)[C@H]2O[C@@](O)(C(=O)C(=O)N3CCCC[C@H]3C(=O)O[C@H](/C(C)=C/[C@@H]3CC[C@@H](O)[C@H](OC)C3)[C@H](C)[C@@H](O)CC1=O)[C@H](C)C[C@@H]2OC [FK506],Kd,[3],2500 nM
